Earlier results as cited in patent US20240023548A1, “TAU-FLUVALINATE COMPOSITIONS” (Adama Makhteshim Ltd., priority 2020, published 2024).

For `CC(C)[C@@H](Nc1ccc(C(F)(F)F)cc1Cl)C(=O)OC(C#N)c1cccc(Oc2ccccc2)c1` (some centres unmarked) [Tau-fluvalinate, tau-fluvalinate], the “Solubility in organic solvents” value (organic solvents) is listed as “soluble in organic solvents” and the Solubility in water (water) is listed as “low solubility in water”.
